Like-named read-outs stand apart in the source and are kept apart here.
Experiments:
[1] = tested on: hepatocellular carcinoma (HCC) cell lines; assay: Cell growth inhibition, panel of 10 HCC cell lines; assay type: cell-based, human; conditions: for IC50: Homo sapiens
Experimental: (§1) Human tumor cell lines from hepatocellular carcinoma (HCC), C3A, Hep3B, HepG2, PLC/PRF/5, SNU182, SNU387, SNU398, SNU423, SNU449 and SNU475 were purchased from the ATCC. Human breast tumor cell lines, HCC2218, HCC1419, BT-474, SK-BR-3, UACC893, JIMT-1, MDA-MB-361, HCC202, MDA-MB-175-VII, HCC1569, HCC1937, HCC38, MDA-MB-157, HCC1954, HCC1500, BT483, KPL-1, SUM225 and ZR-75-1 from ATCC, SUM52 and SUM190 from Asterand, PLC (Detroit Mich.), were cultured in RPMI 1640 medium containing 10% FBS; SKBR3-W13 and BT-474-J4 cultured in RPMI 1640 medium containing 10% FBS and 1 μM lapatinib; KPL4 line was kindly provided by Dr Junichi Kurebayashi (Kawasaki Medical School, Okayama, Japan) and cultured in DMEM containing 5% FBS. JIMT-1 from European Collection of Cell Cultures (UK), is a line derived from a patient clinically resistant to trastuzumab (Herceptin®). SK-BR-3-W13 is a single cell clone isolated by a cloning cylinder after a single treatment of SK-BR-3 cells with 0.5 μM lapatinib. BT-474-J4 is a single cell clone derived from a pool of BT-474 cells that were selected to grow in lapatinib to a concentration of 3 μM.
(§2) Cells were seeded in a 96-well tissue culture plate (NUNC 136102) of RPMI medium containing 10% FBS at 500-2,000 cells per well. Approximately 24 hours after plating, cells were exposed to ten, two-fold or three-fold serial dilutions of either Compound A or B or the combination of the two agents at a 2:1 molar ratio (Compounds A and B respectively). In some cases, cells were grown in RPMI media containing 10% FBS and in the presence or absence of 2 ng/mL hepatocyte growth factor (HGF). Cells were incubated in the presence of compounds for 3 days. ATP levels were determined by adding Cell Titer Glo® (Promega) according to the manufacturer's protocol. Briefly, Cell Titer Glo® was added to each plate, incubated for 20 minutes then luminescent signal was read on the SpectraMax L plate reader with a 0.5 sec integration time. All assays were run at least in duplicate.
(§3) Inhibition of cell growth was estimated after treatment with compound or combination of compounds for three days and comparing the signal to cells treated with vehicle (DMSO). Cell growth was calculated relative to vehicle (DMSO) treated control wells. Concentration of compound that inhibits 50% of control cell growth (IC50) was back-interpolated when y=50% of DMSO treated control wells using nonlinear regression with the equation: […]
(§4) where A is the minimum response (ymin), B is the maximum response (Ymax), C is the inflection point of the curve (EC50) and D is the Hill coefficient.
(§5) Combination effects on potency were evaluated using the Combination Index (CI) and Excess Over Highest Single Agent (EHOSA) methods.

[2] = tested on: BT474; assay: Cell growth inhibition assay, breast tumor cell line (Cell Titer Glo); assay type: cell-based; conditions: Homo sapiens, BT-474, 72 h, BT474 (HER2+), 3 days
Experimental: as §1, §2, §3, §4, §5
(§6) DNA Copy number data on the HER2 gene was collected for all breast cancer cell lines using the Affymetrix 500K chip (Affymetrix Inc, Sunnyvale, Calif.). Briefly DNA was extracted from each line, digested with the restriction enzyme Nsp or Sty, ligated to an adaptor and amplified by PCR. After PCR, DNA was fragmented, labeled, denatured, and hybridized to the Affymetrix 500K chip. Upon completion of hybridization, each assay was washed and stained. Image data were acquired. Similarly collected data from a panel 10 diploid non-tumorigenic lymphoblastic cell lines were used to calculate DNA copy number. All ‘SNP Chip’ images ('CEL files'), were extracted, read and normalized using the dChip software package (Lin et al. 2004. Bioinformatics. 20:1233-40). SNP-wise ‘copy-number ratios’ (log2 scale) were calculated for all cancer cell lines using the lymphoblastic reference panel and analyzed by circular binary segmentation to reduce noise (Olshen et al. 2004. Biostatistics. 5:557-72). Cell lines with log2 ratios of HER2>0.65 were considered HER2+.

[3] = tested on: HCC38; assay: as above; assay type: cell-based; conditions: Homo sapiens, 72 h, HCC38 (HER2−), 3 days
Experimental: as §1, §2, §3, §4, §5, §6

[4] = tested on: HCC1500; assay: as above; assay type: cell-based; conditions: Homo sapiens, 72 h, HCC1500 (HER2−), 3 days
Experimental: as §1, §2, §3, §4, §5, §6

[5] = tested on: ZR-75-1; assay: as above; assay type: cell-based; conditions: Homo sapiens, 72 h, ZR-75-1 (HER2−), 3 days
Experimental: as §1, §2, §3, §4, §5, §6

[6] = tested on: HCC2218; assay: as above; assay type: cell-based; conditions: Homo sapiens, 72 h, HCC2218 (HER2+), 3 days
Experimental: as §1, §2, §3, §4, §5, §6

[7] = tested on: HCC202; assay: as above; assay type: cell-based; conditions: Homo sapiens, 72 h, HCC202 (HER2+), 3 days
Experimental: as §1, §2, §3, §4, §5, §6

[8] = tested on: HCC1937; assay: as above; assay type: cell-based; conditions: Homo sapiens, 72 h, HCC1937 (HER2−), 3 days
Experimental: as §1, §2, §3, §4, §5, §6

[9] = tested on: HCC1419; assay: as above; assay type: cell-based; conditions: Homo sapiens, 72 h, HCC1419 (HER2+), 3 days
Experimental: as §1, §2, §3, §4, §5, §6

[10] = tested on: SUM190; assay: as above; assay type: cell-based; conditions: Homo sapiens, 72 h, SUM190 (HER2+), 3 days
Experimental: as §1, §2, §3, §4, §5, §6

[11] = tested on: SK-BR-3; assay: as above; assay type: cell-based; conditions: Homo sapiens, 72 h, SK-BR-3 (HER2+), 3 days
Experimental: as §1, §2, §3, §4, §5, §6

[12] = tested on: KPL4; assay: as above; assay type: cell-based; conditions: Homo sapiens, 72 h, KPL4 (HER2+), 3 days
Experimental: as §1, §2, §3, §4, §5, §6

[13] = tested on: SUM225; assay: as above; assay type: cell-based; conditions: Homo sapiens, 72 h, SUM225 (HER2+), 3 days
Experimental: as §1, §2, §3, §4, §5, §6

[14] = read-out: Single agent IC50, Compound A
[15] = read-out: Single agent IC50, Compound B

`CC(=O)Nc1cccc(-n2c(=O)n(C3CC3)c(=O)c3c(Nc4ccc(I)cc4F)n(C)c(=O)c(C)c32)c1` [Compound A, N-{3-[3-cyclopropyl-5-[(2-fluoro-4-iodophenyl)amino]-6,8-dimethyl-2,4,7-trioxo-3,4,6,7-tetrahydropyrido[4,3-d]pyrimidin-1(2H)-yl]phenyl}acetamide] showed an IC50 ([1]; SNU 182 and PLC/PRF/5 epithelial-like cell lines) of 1200 to 2800 nM, an IC50 ([1]; epithelial-like HCC cell lines HepG2, C3A and Hep3B) of under 37 nM and an IC50 ([1]; mesenchymal-like HCC cell lines SNU387 and SNU423) of 74 to 577 nM. The “sensitivity to cell growth inhibition” value ([1]; mesenchymal-like cell lines SNU398, SNU449 and SNU475) was “not sensitive”, the IC50 [2, 14] was over 1000 nM and the IC50 [3, 14] was over 1000 nM. The IC50 [4, 14] was over 1000 nM, the IC50 [5, 14] was over 1000 nM and the IC50 [6, 14] was over 1000 nM. The IC50 [7, 14] was over 1000 nM, the IC50 [8, 14] was over 1000 nM and the IC50 [9, 14] was over 1000 nM. The IC50 [10, 14] was over 1000 nM, the IC50 [11, 14] was over 1000 nM and the IC50 [12, 14] was over 1000 nM. For the same molecule, the IC50 [13, 14] was over 1000 nM.
`COc1ncc(-c2ccc3nccc(-c4ccnnc4)c3c2)cc1NS(=O)(=O)c1ccc(F)cc1F` [Compound B, 2,4-difluoro-N-{2-(methyloxy)-5-[4-(4-pyridazinyl)-6-quinolinyl]-3-pyridinyl}benzenesulfonamide] showed an IC50 ([1]; all 10 HCC lines) of under 103 nM, an IC50 [2, 15] of 30 ± 7 nM and an IC50 [3, 15] of 95 ± 34 nM. It also gave an IC50 [4, 15] of 61 ± 36 nM, an IC50 [5, 15] of 6 ± 1 nM and an IC50 [6, 15] of 18 ± 13 nM. The IC50 [7, 15] was 45 ± 4 nM, the IC50 [8, 15] was 114 ± 63 nM and the IC50 [9, 15] was 24 ± 14 nM. It also gave an IC50 [10, 15] of 6 ± 3 nM, an IC50 [11, 15] of 24 ± 20 nM and an IC50 [12, 15] of 3 ± 1 nM. For the same molecule, the IC50 [13, 15] was 13 ± 14 nM.

From patent US20120245180A1, “COMBINATION” (GlaxoSmithKline LLC, priority 2009, published 2012)
